These results are taken from ChEMBL document CHEMBL1201862, “PubChem BioAssay data set” (2004).

Active and inactive are the calls of the source.

One assay concerns the target T1, Leucine aminopeptidase (Plasmodium falciparum 3D7, UniProt Q8IL11).
T1 sequence (Q8IL11 whole entry): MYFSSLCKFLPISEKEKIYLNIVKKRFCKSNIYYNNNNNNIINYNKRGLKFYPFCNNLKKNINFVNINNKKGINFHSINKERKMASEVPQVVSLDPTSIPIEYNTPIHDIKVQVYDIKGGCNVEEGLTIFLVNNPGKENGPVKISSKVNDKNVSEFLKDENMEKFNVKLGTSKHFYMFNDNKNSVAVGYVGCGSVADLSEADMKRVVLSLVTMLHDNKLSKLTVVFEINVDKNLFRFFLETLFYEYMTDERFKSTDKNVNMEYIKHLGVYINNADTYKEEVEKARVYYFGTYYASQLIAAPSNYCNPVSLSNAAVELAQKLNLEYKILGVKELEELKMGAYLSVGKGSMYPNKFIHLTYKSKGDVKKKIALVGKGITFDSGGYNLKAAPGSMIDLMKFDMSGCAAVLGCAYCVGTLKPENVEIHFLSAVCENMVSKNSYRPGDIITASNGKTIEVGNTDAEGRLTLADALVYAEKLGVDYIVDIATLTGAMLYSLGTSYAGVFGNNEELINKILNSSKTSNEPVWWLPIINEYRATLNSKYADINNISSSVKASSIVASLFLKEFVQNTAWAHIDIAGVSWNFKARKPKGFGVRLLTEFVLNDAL
In words: P. falciparum M17LAP inhibitors, primary screen, biochemical, fluorogenic H-Leu-NHMec substrate, 1536-well (AID 1619). In kind it is functional.

Assay [1] can be described thus: cells. The format is functional, cell-based.
Assay [2] is described as follows: cells. The format is functional, cell-based. The source holds these as a separate data set.
The next assay deals with T2, Mucolipin-3 (Homo sapiens, UniProt Q8TDD5).
T2 sequence (Q8TDD5 whole entry): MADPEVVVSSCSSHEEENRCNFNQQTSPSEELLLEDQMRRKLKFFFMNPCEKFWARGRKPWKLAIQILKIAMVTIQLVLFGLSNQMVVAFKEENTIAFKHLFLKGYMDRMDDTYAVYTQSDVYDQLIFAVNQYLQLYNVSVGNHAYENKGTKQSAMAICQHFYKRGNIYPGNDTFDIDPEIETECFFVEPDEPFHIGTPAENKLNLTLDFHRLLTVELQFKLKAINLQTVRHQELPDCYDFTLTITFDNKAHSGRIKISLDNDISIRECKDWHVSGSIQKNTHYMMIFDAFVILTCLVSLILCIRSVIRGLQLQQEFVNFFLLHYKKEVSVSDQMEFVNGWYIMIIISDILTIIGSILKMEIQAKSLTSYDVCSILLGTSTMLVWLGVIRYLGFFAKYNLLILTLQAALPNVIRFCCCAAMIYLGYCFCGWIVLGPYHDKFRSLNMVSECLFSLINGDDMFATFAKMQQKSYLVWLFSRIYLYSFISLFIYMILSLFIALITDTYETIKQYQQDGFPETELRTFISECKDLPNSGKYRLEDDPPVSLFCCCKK
In words: Dose response cell-based high-throughput screening assay for agonists of the transient receptor potential channel ML3 (TRPML3). [Related pubchem assays: 1526, 1424, 1448 ]. In kind it is functional.

The target of the next assay is Ion channel NompC (Danio rerio, UniProt Q7T1G6). In words: Fluorescence counterscreen assay for TRPML3 agonists: dose response cell-based high-throughput screening assay to identify agonists of the transient receptor potential channel N1 (TRPN1). [Related pubchem assays: 1526, 1424, 1448 ]. In kind it is functional.
Assay [3] is described as follows: cells.
The target of assay [4] is G-protein coupled receptor 55 (Homo sapiens, UniProt Q9Y2T6). In words: selective activators of receptor GPR55 – imaging, U2OS cells, beta-arrestin-GFP redistribution, primary screen (AID 1961). The format is functional.
In assay [5] the target is FAD-linked sulfhydryl oxidase ALR (Homo sapiens, UniProt P55789). In words: ALR-catalysed DTT oxidation blockers – biochemical, H2O2 detection, luminescence, cherry-pick, dose response (AID 493248).
Another assay concerns the target T3, CAAX prenyl protease 2 (Saccharomyces cerevisiae S288c, UniProt Q03530).
T3 sequence (Q03530 whole entry): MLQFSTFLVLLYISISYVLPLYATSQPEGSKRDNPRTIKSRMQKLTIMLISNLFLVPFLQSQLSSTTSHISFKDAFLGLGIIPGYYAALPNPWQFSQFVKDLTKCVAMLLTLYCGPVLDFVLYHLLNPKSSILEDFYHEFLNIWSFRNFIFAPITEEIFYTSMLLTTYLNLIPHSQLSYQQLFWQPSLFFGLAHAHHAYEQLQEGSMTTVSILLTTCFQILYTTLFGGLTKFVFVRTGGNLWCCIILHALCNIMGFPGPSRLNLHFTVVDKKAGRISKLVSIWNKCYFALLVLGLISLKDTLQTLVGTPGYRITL
In kind it is biochemical.

Assay [6] addresses DNA dC->dU-editing enzyme APOBEC-3A (Homo sapiens, UniProt P31941). In words: A3A deaminase inhibition for selectivity – biochemical, dose response (AID 504722). The format is functional.
Assay [7] has as its target DNA dC->dU-editing enzyme APOBEC-3G (Homo sapiens, UniProt Q9HC16). In words: Dose Response confirmation of small molecule APOBEC3G DNA Deaminase Inhibitors via a fluorescence-based single-stranded DNA deaminase assay. [Related pubchem assays (depositor defined):AID493012, AID493028]. The format is functional.
The next assay has as its target Estrogen receptor beta (Homo sapiens, UniProt Q92731). In words: blockers of SRC-3 recruitment to ERβ – biochemical, ELISA, streptavidin-HRP readout, orthogonal assay, confirmation (AID 1060).
Assay [8] has as its target Induced myeloid leukemia cell differentiation protein Mcl-1 (Homo sapiens, UniProt Q07820). The format is functional.
The target of assay [9] is Eukaryotic translation initiation factor 4E (Mus musculus, UniProt P63073). In words: blockers of eIF4G binding by eIF4E – biochemical, TR-FRET, dose response (AID 855).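 Further: potency for disrupting eIF4E binding to eIF4GI seen as loss of FRET.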 In kind it is functional.
The target in assay [10] is T4, RNA-binding protein pos-1 (Caenorhabditis elegans, UniProt G5EF15).
T4 sequence (G5EF15 whole entry): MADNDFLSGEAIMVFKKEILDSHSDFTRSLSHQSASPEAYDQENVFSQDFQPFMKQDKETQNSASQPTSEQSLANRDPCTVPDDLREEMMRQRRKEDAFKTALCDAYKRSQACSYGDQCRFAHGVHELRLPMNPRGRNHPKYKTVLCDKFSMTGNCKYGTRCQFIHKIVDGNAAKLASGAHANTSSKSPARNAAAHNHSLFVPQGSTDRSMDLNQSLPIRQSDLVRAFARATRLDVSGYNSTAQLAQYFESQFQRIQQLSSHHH
In words: disruptors of C. elegans POS-1 RNA interaction – biochemical, fluorescence polarization, dose response (AID 1964).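 Further: purified POS-1 fused to maltose binding protein made in E. coli; potency of compounds blocking POS-1 binding to fluorescent RNA.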

The target of assay [11] is T5, Zinc finger protein mex-5 (Caenorhabditis elegans, UniProt Q9XUB2).
T5 sequence (Q9XUB2 whole entry): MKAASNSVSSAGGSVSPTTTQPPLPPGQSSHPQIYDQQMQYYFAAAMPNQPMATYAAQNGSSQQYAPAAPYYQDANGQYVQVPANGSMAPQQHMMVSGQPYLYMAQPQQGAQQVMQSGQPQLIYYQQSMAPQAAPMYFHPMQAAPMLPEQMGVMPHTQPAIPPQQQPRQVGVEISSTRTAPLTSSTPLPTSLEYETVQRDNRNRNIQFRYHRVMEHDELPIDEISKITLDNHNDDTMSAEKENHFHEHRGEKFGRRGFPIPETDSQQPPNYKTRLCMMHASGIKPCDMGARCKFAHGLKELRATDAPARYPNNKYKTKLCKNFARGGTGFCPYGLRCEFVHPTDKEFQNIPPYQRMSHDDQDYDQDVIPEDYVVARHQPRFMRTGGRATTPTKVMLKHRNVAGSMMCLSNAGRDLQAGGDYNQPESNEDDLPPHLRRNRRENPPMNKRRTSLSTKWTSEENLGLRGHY
In words: potency of MEX-5 RNA-binding blockers – biochemical, C. elegans, fluorescence polarization, dose response (AID 1960).

The target in assay [12] is T6, Epstein-Barr nuclear antigen 1 (Epstein-Barr virus (strain B95-8) (HHV-4) (Human herpesvirus 4), UniProt P03211).
T6 sequence (P03211 whole entry): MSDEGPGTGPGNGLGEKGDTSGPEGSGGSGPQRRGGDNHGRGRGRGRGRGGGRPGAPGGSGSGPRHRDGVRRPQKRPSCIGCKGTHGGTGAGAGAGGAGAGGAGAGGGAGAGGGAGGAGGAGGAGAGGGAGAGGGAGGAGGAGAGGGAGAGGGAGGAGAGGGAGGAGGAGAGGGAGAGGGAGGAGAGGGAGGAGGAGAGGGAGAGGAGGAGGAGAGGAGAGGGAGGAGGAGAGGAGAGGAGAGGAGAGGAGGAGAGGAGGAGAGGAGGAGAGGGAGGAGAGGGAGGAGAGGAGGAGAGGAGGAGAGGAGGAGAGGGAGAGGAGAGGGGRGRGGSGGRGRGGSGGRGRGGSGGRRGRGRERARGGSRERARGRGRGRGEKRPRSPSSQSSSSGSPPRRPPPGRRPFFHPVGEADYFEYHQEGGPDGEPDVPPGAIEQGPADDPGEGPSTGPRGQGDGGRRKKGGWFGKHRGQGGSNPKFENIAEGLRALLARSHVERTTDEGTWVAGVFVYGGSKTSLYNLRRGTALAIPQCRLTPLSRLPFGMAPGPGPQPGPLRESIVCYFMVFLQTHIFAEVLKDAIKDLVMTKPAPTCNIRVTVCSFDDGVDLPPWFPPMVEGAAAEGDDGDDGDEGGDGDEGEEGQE
In words: inhibition of EBV nuclear antigen 1 DNA binding – biochemical, fluorescence polarization, 1536-well, dose response (AID 2381).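 Further: fluorescence polarization of a Cy5 DNA probe bound by EBNA-1 protein.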 Set-up: species or system human gammaherpesvirus 4.

Assay [13] addresses T7, Lytic switch protein BZLF1 (Epstein-Barr virus (strain B95-8) (HHV-4) (Human herpesvirus 4), UniProt P03206).
T7 sequence (P03206 whole entry): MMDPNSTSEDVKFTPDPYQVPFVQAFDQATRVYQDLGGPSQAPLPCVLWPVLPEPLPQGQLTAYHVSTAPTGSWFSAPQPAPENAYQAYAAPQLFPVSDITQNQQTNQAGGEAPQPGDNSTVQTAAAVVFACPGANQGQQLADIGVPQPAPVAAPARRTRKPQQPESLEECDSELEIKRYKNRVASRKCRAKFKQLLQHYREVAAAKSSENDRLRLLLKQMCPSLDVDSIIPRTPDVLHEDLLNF
In words: inhibition of BZLF1 ZTA DNA binding – biochemical, fluorescence polarization, Epstein-Barr virus, 1536-well, counter-screen for EBNA-1 inhibitor project, dose response (AID 2377).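 Further: fluorescence polarization of Cy5-labelled ZRE DNA probe bound by purified Zta.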 The arrangement: species or system human gammaherpesvirus 4.

Chain of DNA dC->dU-editing enzyme APOBEC-3A (P31941 whole entry): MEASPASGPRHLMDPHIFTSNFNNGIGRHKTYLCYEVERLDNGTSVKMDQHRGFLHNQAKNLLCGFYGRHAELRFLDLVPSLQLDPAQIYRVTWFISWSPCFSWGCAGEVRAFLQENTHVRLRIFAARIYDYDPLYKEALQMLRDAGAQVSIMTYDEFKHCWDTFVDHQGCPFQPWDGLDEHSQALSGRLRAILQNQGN
Chain of Ion channel NompC (Q7T1G6 whole entry): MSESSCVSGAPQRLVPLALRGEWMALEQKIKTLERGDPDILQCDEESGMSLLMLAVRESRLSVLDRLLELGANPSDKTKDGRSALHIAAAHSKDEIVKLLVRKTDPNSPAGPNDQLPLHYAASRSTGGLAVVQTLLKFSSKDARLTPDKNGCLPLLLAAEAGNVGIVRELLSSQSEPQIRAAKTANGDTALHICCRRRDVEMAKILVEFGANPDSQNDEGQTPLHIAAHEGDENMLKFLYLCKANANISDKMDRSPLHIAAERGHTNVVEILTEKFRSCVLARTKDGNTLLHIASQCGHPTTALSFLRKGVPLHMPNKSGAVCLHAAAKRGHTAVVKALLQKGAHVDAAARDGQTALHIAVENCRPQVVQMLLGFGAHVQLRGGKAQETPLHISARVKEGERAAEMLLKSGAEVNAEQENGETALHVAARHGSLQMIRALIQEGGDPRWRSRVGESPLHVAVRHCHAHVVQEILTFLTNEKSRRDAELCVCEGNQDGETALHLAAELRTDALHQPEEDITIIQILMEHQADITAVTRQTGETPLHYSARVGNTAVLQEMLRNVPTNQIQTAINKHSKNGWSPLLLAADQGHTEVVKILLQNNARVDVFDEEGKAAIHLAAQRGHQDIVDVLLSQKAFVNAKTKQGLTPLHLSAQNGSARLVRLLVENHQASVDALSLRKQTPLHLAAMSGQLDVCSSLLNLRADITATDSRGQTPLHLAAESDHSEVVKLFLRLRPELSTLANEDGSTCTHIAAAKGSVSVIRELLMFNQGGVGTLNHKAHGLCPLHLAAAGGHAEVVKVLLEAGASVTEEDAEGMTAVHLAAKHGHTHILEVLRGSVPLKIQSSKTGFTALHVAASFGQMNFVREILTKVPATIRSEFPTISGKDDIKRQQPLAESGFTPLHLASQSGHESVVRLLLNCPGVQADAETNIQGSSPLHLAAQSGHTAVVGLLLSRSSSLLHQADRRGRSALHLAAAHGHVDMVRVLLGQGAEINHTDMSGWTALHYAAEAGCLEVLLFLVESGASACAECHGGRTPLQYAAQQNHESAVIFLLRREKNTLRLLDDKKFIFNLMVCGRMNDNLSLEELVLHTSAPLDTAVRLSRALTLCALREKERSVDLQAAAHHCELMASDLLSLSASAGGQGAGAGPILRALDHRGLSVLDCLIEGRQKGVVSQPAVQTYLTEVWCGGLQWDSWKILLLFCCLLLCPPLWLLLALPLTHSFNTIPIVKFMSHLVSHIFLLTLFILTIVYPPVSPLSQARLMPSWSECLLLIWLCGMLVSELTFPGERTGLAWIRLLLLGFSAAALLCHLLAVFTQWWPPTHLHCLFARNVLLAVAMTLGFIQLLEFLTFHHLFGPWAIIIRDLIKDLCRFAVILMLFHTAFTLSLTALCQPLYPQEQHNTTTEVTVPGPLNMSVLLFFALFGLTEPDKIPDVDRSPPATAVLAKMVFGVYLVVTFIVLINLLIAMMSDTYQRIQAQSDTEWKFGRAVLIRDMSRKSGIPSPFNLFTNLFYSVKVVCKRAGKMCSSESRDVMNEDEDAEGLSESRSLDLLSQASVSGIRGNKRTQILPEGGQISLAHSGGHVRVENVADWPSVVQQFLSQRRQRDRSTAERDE
Chain of DNA dC->dU-editing enzyme APOBEC-3G (Q9HC16 whole entry): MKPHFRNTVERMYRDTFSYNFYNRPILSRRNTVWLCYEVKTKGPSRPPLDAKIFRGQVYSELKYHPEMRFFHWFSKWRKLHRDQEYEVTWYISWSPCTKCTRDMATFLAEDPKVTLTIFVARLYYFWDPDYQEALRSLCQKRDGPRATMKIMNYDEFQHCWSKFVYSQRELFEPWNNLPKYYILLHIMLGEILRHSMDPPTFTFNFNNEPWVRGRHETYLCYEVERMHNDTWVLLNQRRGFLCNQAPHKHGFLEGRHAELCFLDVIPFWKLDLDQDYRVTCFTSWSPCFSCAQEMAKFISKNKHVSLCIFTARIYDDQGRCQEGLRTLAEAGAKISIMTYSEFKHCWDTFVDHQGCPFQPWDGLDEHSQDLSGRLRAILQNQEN
Chain of G-protein coupled receptor 55 (Q9Y2T6 whole entry): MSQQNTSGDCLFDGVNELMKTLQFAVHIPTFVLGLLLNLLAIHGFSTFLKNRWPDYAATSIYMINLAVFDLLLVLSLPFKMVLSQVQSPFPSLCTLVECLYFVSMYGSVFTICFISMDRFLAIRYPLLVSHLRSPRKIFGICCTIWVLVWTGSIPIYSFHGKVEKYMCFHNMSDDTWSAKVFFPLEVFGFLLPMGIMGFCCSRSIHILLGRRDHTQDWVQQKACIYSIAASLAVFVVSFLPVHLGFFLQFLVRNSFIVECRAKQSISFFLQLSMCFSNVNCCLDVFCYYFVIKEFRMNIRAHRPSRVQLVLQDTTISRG
Chain of Induced myeloid leukemia cell differentiation protein Mcl-1 (Q07820 whole entry): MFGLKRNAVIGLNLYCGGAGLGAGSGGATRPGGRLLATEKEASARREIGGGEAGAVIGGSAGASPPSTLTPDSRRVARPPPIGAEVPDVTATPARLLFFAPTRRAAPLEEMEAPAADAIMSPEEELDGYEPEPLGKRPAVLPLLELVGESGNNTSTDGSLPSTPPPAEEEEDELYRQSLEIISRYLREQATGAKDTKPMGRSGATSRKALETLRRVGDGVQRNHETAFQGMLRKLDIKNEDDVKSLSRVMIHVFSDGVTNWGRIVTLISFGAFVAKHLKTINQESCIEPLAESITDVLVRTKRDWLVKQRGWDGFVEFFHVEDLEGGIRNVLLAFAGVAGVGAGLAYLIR
Chain of Eukaryotic translation initiation factor 4E (P63073 whole entry): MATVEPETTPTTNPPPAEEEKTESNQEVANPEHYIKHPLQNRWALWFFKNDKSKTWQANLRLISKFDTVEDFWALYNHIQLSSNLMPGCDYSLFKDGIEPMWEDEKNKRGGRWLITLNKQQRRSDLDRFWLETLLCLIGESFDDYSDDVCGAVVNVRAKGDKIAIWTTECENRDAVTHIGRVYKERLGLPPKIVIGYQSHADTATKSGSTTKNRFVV
Chain of Estrogen receptor beta (Q92731 whole entry): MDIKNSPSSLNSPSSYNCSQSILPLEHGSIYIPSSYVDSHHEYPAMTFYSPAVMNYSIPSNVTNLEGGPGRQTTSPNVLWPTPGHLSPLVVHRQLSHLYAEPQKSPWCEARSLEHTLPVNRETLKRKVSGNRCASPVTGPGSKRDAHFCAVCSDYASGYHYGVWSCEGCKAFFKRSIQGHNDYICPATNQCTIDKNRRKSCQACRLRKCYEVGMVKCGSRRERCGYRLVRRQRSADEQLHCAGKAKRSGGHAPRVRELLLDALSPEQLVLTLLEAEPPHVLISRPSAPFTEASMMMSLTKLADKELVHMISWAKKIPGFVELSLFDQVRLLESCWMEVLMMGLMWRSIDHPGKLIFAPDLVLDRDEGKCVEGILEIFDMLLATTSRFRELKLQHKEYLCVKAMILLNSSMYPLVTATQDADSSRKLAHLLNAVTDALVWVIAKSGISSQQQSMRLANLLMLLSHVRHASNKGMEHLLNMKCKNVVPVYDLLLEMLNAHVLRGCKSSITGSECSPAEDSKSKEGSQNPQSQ
Chain of FAD-linked sulfhydryl oxidase ALR (P55789 whole entry): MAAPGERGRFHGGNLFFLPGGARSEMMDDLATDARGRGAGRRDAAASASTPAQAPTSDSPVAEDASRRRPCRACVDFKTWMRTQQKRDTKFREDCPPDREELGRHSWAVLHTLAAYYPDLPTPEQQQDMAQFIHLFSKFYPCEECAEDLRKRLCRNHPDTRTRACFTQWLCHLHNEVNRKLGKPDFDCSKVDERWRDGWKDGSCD

Turning to `Cc1nc(NS(=O)(=O)c2ccccc2)sc1C(=O)NN`, the IC50 on Leucine aminopeptidase is 114 µM (active).

On to `CC(C)CC1NC(=O)N(Cc2cc(=O)n3ccsc3n2)C1=O` (stereo not given), for which the EC50 in “cells [1]” and in the assay “cells [2]” was > 350 µM (not active) throughout.

Regarding `CCCN(CCC)S(=O)(=O)c1ccc(C(=O)N2CCCc3ccccc32)cc1`, the EC50 at Mucolipin-3 was 1.33 µM (active); on Ion channel NompC, > 29.9 µM (not active).

For the molecule `CC(=O)N1CCN(C2=NC(=O)/C(=C/c3ccc(OS(=O)(=O)c4ccccc4)cc3)S2)CC1`, in “cells [3]”, the half-inhibitory concentration (IC50) was 37.9 µM (active).

Regarding `Nc1ccc(Oc2ccc3nc(-c4ccccc4)c(-c4ccccc4)nc3c2)cc1`, the concentration for a half-maximal effect (EC50) in assay [4] was 1.91 µM (active).

On to `Cc1cccc(Nc2ncnc3[nH]cnc23)c1`, for which the IC50 at Leucine aminopeptidase is 71.4 µM (active). Further, the AC50 in [5] is 75.3 µM (active).

Take `CCOC(=O)C1CCCN(C(=O)CCn2nnnc2CN2CCOCC2)C1` (stereo not given): on CAAX prenyl protease 2, the half-maximal activity concentration (AC50) is 27.9 µM (active).

Consider `Cc1nc(-c2ccccc2)sc1-c1n[nH]c(=S)n1C`, for which the IC50 in assay [6] was > 100 µM (inactive); in assay [7], 4.9 µM (active).

`Nc1c(C(=O)NCc2ccco2)sc2nc3c(cc12)C(=O)CCC3`: the IC50 at Estrogen receptor beta is 6.25 µM (not active); in assay [8] it was 3.38 µM (active); in [9] it was > 64 µM (inactive).

`CCCCNC(=O)CC1N=C2c3ccccc3N=C(SCC(=O)Nc3ccc(OC)cc3)N2C1=O` (stereo not given): the IC50 in the assay “cells [3]” was 37 µM (active).

For the molecule `c1ccc(CSc2nnc(-c3ccco3)o2)cc1`, the EC50 in “cells [1]” and in the assay “cells [2]” was > 350 µM (not active) each time.

Turning to `CC(C)CSc1nnc(S)s1`, the IC50 in assay [6] was > 100 µM (inactive); in assay [7] it was 3.32 µM (active).

Take `O=c1c2ccccc2cnn1Cc1nnc(S)n1-c1ccc(Cl)cc1`: the results for the IC50 in [6] and in assay [7] were > 100 µM (inactive) and 5.01 µM (active), respectively.

With `Nc1cc(N)nc(SCC(=O)Nc2ccc3c(c2)OCCCO3)n1`, the 50% inhibitory concentration (IC50) at Leucine aminopeptidase was 14.4 µM (active).

Regarding `CN(C)c1ccc(/C=C(\C#N)C(=O)NCc2ccco2)cc1`, the EC50 is > 300 µM (not active) in assay [10] and 23.7 µM (active) in assay [11]. The IC50 is on record as 15 µM (not active) in assay [12] and 32 µM (not active) in assay [13].

Consider `CC(C)[C@H](NS(=O)(=O)c1ccc2c(c1)OCCO2)C(=O)OCC(=O)Nc1cccc(Cl)c1Cl`, for which the EC50 on Mucolipin-3 was 3.69 µM (active); on Ion channel NompC, > 29.9 µM (not active).

Regarding `COc1ccccc1CC(=O)Nc1ccc2c(c1)C(=O)NC2=O`, the EC50 in [4] is 14.9 µM (inactive).

Take `Cc1cccc(-c2noc(CN(C(C)C)S(=O)(=O)c3ccc(F)cc3)n2)c1`: the figures for the EC50 at Mucolipin-3 and at Ion channel NompC were 1.77 µM (active) and > 29.9 µM (not active), respectively.

Turning to `O=C1C2C3C=CC(C3)C2C(=O)N1CCCCN1C(=O)C2C3C=CC(C3)C2C1=O` (stereo not given), in assay [9], the IC50 was > 64 µM (inactive).

With `Cc1[nH]c2ccccc2c1/C=N/Nc1ccc([N+](=O)[O-])cc1`, the half-maximal inhibitory concentration (IC50) in assay [8] was < 0.4 µM (active); in the assay “cells [3]” it was 27 µM (active).
